Legend:
NCK2 = NCK2 phase separation in vitro, 60 mM NaCl, Coomassie quantification (Fig. 5E); design: species or system mouse; details: Amount/Total
Experimental: E. coli BL21 (DE3) cells were transformed with mNCK2 constructs in the pET-30b vector and grown overnight at 37 °C in LB with 100 µg/ml kanamycin. The next day, cultures were expanded in LB with kanamycin until they reached their exponential growth phase (OD600 of around 1.0). Protein production was then induced by the addition of 1 mM IPTG (Bio Basic) and incubation at 16 °C overnight with agitation. Cultures were pelleted with a centrifugation step (3200g at 4 °C, 30 min), washed with ice-cold PBS, and pellets were kept at −80 °C. Bacteria were thawed in GST buffer (20 mM Tris-HCl pH 7.5, 0.5 M NaCl, 1 mM EDTA, and 1 mM DTT (Millipore Sigma)) with cOmplete protease inhibitors (Millipore Sigma) and disrupted with sonication. Lysates were then centrifuged at 20,000g for 20 min at 4 °C and the supernatant loaded to a GSTrap FF 1 mL column (GE Healthcare). Following a washing step with 10 mL GST–Buffer, the GST-Tagged proteins were eluted with 15 mM GSH (Bio-basic) and cleaved in a solution using purified recombinant His-tagged TEV protease (Thermo Fisher Scientific). Tag-free NCK2 proteins were further purified using a 1 ml HisTrap FF column (GE Healthcare) to remove free His-tagged GST and TEV as well as remaining impurities. The purified proteins were concentrated with Amicon 10 K filters (Millipore Sigma) and their concentration assessed using Coomassie and BCA assays (Thermo Fisher Scientific).
Purified NCK2 proteins were diluted in GST buffer to identical concentrations. At 500 mM NaCl present in this buffer, all NCK2 constructs were completely soluble. Phase transition was initiated by dilution in imidazole buffer (10 mM imidazole (Bio Basic) pH 7.0, 1 mM DTT, 1 mM EGTA (Millipore Sigma), 1 mM MgCl2, 2.5% Glycerol (Bioshop Canada), 3% Dextran (Millipore Sigma)) containing various amount of NaCl so that the final concentration of NaCl would correspond to those in Supplementary Fig. 7B. For all the other experiments, the phase transition of NCK2 proteins was assessed at 60 mM NaCl. NCK2 at 8 μg/μL (40 μg in 5 μL) was added to 35 μL imidazole buffer in a plastic 96-well plate that had first been pretreated with a 0.2% bovine serum albumin solution to reduce nonspecific binding. The plate assay was then incubated overnight (24 h) at 4 °C before imaging. Phase-contrast images of each well were acquired using a Zeiss Axio Vert.A1 inverted microscope with an LD A-Plan 40×/0.55 Ph1 objective (Zeiss) in Zen Blue software (version 2.3.69.1000). After imaging, the soluble protein fraction (supernatant) was recovered for sodium dodecyl sulfate polyacrylamide gel electrophoresis analysis. Protein droplets attached at the bottom of the well (pellet) were washed once with imidazole buffer with 60 mM NaCl and then solubilized in Laemmli buffer. The pellets to supernatant fractions were used to quantify phase transition at 60 mM NaCl (7 replicates) via Coomassie protein quantification. The involvement of weak hydrophobic interactions in NCK2 driven phase transition was assessed using 1,6-Hexanediol (Millipore Sigma) at 60 mM NaCl. Imidazole buffer containing 0%, 1%, 5%, and 10% 1,6-Hexanediol was first prepared and phase transition was initiated and analyzed as described above. Finally, the competition of SH3-2 dependent homotypic NCK2 interaction with an SH3-2 binding peptide was assessed in the presence of 5, 15, 45, 90, 150, or 300 μM PAK1 peptide ([…]) in imidazole buffer with 60 mM NaCl. The impact of PAK1 peptide addition was observed via phase contrast microscopy as described above.

BEM1-1 = test: DHFR-PCA on solid medium, bait BEM1-1 (Fig. 1B); type: cell-based, Saccharomyces cerevisiae; details: bait BEM1-1, label = prey; for medrep (log2 median colony size normalized to plate background, PCA score): 2-8 replicates; for Ratio (SH3-deleted/WT medrep): only significant differences showed, PPIs completely lost have a ratio of 0.1 and the gained PPIs 2.5
Text: (§1) Supplement 41467_2021_21873_MOESM8_ESM.xlsx, sheet "Fig1B" | column: medsize; medrep; Ratio; Score

[1] = tested on: 575 putative partners (preys) of 22 WT SH3-containing proteins; test: DHFR-PCA on solid medium, WT and SH3-deleted baits (Fig. 1B); type: cell-based, Saccharomyces cerevisiae; design: key to Score: 0: SH3-independent; 1: SH3-dependent PPIs; 2: SH3-inhibited PPIs; details: for medrep (log2 median colony size normalized to plate background, PCA score): label = prey; for Ratio (SH3-deleted/WT medrep): only significant differences shown, PPIs completely lost have a ratio of 0.1, gained PPIs 2.5
Text: To assess the requirement of SH3 domains for PPIs in vivo, we first measured binary interactions between 22 WT SH3-containing proteins (Supplementary Fig. 1A) as baits and 575 putative partners from their interconnected signaling networks using the dihydrofolate reductase protein–fragment complementation assay (DHFR-PCA) in the budding yeast Saccharomyces cerevisiae. About 33% (202/607) of the PPIs detected were described before, mostly by direct methods (Supplementary Fig. 1B, C)[11]. We repeated the experiments with baits in which the SH3s were individually replaced with a flexible linker by genome editing (SH3 domain deletion/stuffing, Fig. 1A). The stuffer DNA sequence ([…]) codes for a small flexible poly-Gly with Ser peptide ([…]) that is inspired by previous experiments[12],[13]. About a third of the SH3-containing protein interactome is qualitatively or quantitatively SH3-dependent (171 PPIs out of 607, Fig. 1B and Supplementary Fig. 1B, C). We validated the vast majority of the quantitative changes in low-throughput experiments and excluded that this is simply due to changes in protein abundance in most cases (Supplementary Fig. 1D–G). SH3-binding motifs[14] are more frequent in the SH3-dependent PPI partners when compared to sequences from random proteins, SH3-independent PPI partners or PPI partners that are stronger or gained following SH3 deletions (p values = 1.5 × 10^−17, 0.0038 and 2.1 × 10^−08, respectively; Mann–Whitney test, one-tailed, Fig. 1C). The changes we measure are therefore enriched for PPIs that depend on the direct interactions of the domains with the PPI partners.
The complete list of strains, primers, and gRNAs used in this study can be found in Supplementary Tables 1–3. All constructed yeast strains were validated by polymerase chain reaction (PCR) and confirmed by Sanger sequencing of the locus of interest. Bait strains for the DHFR-PCA experiments were constructed as follows. The genes of interest were fused at their genomic 3′ end by replacing the stop codon with a linker ([…]), the DHFR F[1,2] followed by a smaller linker (GGGGS), a 1× FLAG tag ([…]) and the NATMX4 resistance cassette via homologous recombination (all amplified from pAG25-DHFR[1,2]-linker-FLAG). The set of 615 prey strains (DHFR F[3] fusions in the BY4742 background) were retrieved from the Yeast Protein Interactome Collection[43] with the exception of 73 that were reconstructed (Supplementary Tables 1 and 2). Knockout strains were taken from the yeast knockout collection except for ABP1, BEM1, BZZ1, and SLA1, which were reconstructed by replacing the ORFs with the NATMX4 resistance cassette by homologous recombination in the BY4741 background.
Yeast SH3 domain genomic sequences were replaced by CRISPR–Cas9 genome editing. Each SH3 domain (as defined by the SMART database V8.0 except for Ysc84 SH3 (as defined by PROSITE), see Source Data for all SH3 sequences and Supplementary Table 1 for primers used) was specifically targeted by one gRNA[46]. Yeast competent cells were co-transformed with a pCAS plasmid (Addgene plasmid 60847[47]) expressing both the gRNA of interest and Streptococcus pyogenes Cas9[46] and a donor DNA sequence (stuffer) with 60 bp homology arms surrounding the SH3 DNA sequence. The Stuffer DNA was either PCR amplified or digested from a plasmid. The stuffer DNA sequence ([…]) codes for a small flexible linker ([…]) inspired by protein linkers used in structural biology[12],[13]. This type of linker is frequently used for fusing proteins without affecting the structure of the linked proteins.
The overall DHFR-PCA pipeline is based on Tarassov et al.[43] and the procedures have also been published as a visualized protocol. The screens were performed with robotically manipulated pin tools (BM5-SC1, S&P Robotics Inc.). First, the preys were cherry-picked from 96-well plates to omnitrays in a 384 format on YPD + HPH solid media. […]

ABP1 = test: DHFR-PCA on solid medium, bait ABP1 (Fig. 1B); type: cell-based, Saccharomyces cerevisiae; details: bait ABP1, label = prey; 2-4 replicates
Text: as §1

BBC1 = test: DHFR-PCA on solid medium, bait BBC1 (Fig. 1B); type: cell-based, Saccharomyces cerevisiae; details: bait BBC1, label = prey; for medrep (log2 median colony size normalized to plate background, PCA score): 2-4 replicates; for Ratio (SH3-deleted/WT medrep): only significant differences showed, PPIs completely lost have a ratio of 0.1 and the gained PPIs 2.5
Text: as §1

[2] = bait SLA1-2, DHFR-PCA, Replicates 4 (2 for YCR009C, YDR388W)
[3] = bait SLA1-3, DHFR-PCA, Replicates 4 (2 for YCR009C, YDR388W, YIL033C)

Row | Substance | medrep (log2 median colony size normalized to plate background, PCA score) [1, 2] | Score ([1]; bait SLA1-2, label = prey) | Ratio (SH3-deleted/WT medrep) ([1]; bait SLA1-2, label = prey) | medrep (log2 median colony size normalized to plate background, PCA score) [1, 3] | Score ([1]; bait SLA1-3, label = prey) | medrep (log2 median colony size normalized to plate background, PCA score) (ABP1) | medrep (log2 median colony size normalized to plate background, PCA score) (BBC1) | Ratio (SH3-deleted/WT medrep) (BBC1) | other results
1 | NCK2 | – | – | – | – | – | – | – | – | Ratio (NCK2; Phase Pellet, replicate 1): 0.2548; Ratio (NCK2; Phase Pellet, replicate 2): 0.3742; Ratio (NCK2; Phase Pellet, replicate 3): 0.4878; Ratio (NCK2; Phase Pellet, replicate 4): 0.2596; Ratio (NCK2; Phase Pellet, replicate 5): 0.2564; Ratio (NCK2; Phase Pellet, replicate 6): 0.2454; Ratio (NCK2; Phase Pellet, replicate 7): 0.2712; Ratio (NCK2; Phase Soluble, replicate 1): 0.7452; Ratio (NCK2; Phase Soluble, replicate 2): 0.6258; Ratio (NCK2; Phase Soluble, replicate 3): 0.5122; Ratio (NCK2; Phase Soluble, replicate 4): 0.7404; Ratio (NCK2; Phase Soluble, replicate 5): 0.7436; Ratio (NCK2; Phase Soluble, replicate 6): 0.7546; Ratio (NCK2; Phase Soluble, replicate 7): 0.7288
2 | YDR265W | – | – | – | – | – | – | – | – | medrep (log2 median colony size normalized to plate background, PCA score) (BEM1-1): 2.347; Ratio (SH3-deleted/WT medrep) (BEM1-1): 2.5
3 | YDR388W (ETVTALYDYQAQAAGDLSFPAGAVIEIVQRTPDVNEWWTGRYNGQQGVFPGNYVQLNK) | 1.88 | 1 | 0.1 | 1.88 | 0 | 4.711 | 1.395 | 0.1 | –
4 | YER166W | 2.422 | 1 | 0.1 | 2.422 | 0 | 3.035 | – | – | –
5 | YFR024C-A (PKAVALYSFAGEESGDLPFRKGDVITILKKSDSQNDWWTGRVNGREGIFPANYVELV) | – | – | – | 4.788 | 0 | 5.192 | 1.926 | 0.1 | –
6 | YHR016C (SATPTAVALYNFAGEQPGDLAFKKGDVITILKKSDSQNDWWTGRTNGKEGIFPANYVRVS) | 1.614 | 1 | 0.4201 | 3.842 | 0 | 4.9581 | – | – | –
7 | YIL062C | – | – | – | 4.44 | 0 | 5.265 | 4.09 | – | –
8 | YJL210W | – | – | – | – | – | – | – | – | medrep (log2 median colony size normalized to plate background, PCA score) (BEM1-1): 1.8146; Ratio (SH3-deleted/WT medrep) (BEM1-1): 2.5
9 | YLR370C | 2.335 | 1 | 0.5146 | 4.537 | 0 | 5.077 | 4.024 | – | –
10 | YMR026C | – | – | – | – | – | – | – | – | medrep (log2 median colony size normalized to plate background, PCA score) (BEM1-1): 3.625; Ratio (SH3-deleted/WT medrep) (BEM1-1): 2.5
11 | YNL138W | 2.731 | 1 | 0.1 | 2.731 | 0 | 5.358 | 2.102 | 0.1 | –
12 | YOR181W | 2.241 | 1 | 0.4606 | 4.865 | 0 | 4.4673 | 1.945 | 0.4732 | –
13 | YPR184W | 2.1199 | 1 | 0.1 | 2.1199 | 0 | 3.5 | – | – | –

From PMC7954794, “Protein context shapes the specificity of SH3 domain-mediated interactions in vivo” (Nature Communications, 2021)
